Legend:
[1] = Test Example 1: effect of pH on stability of LNB upon heating (2% LNB in buffer, TLC of decomposed products); format: physicochemical; conditions: 90° C. for 60 minutes
Method: Samples of the LNB powder prepared in the above Production Example 1 were dissolved at a concentration of 2% (by mass, this also applies to all subsequent concentration values) in a 0.1 M citrate buffer solution (pH: 3.0 to 6.0), a 0.1 M phosphate buffer solution (pH: 6.0 to 8.0) or a 0.1 M glycine buffer solution (pH: 8.5 to 10.5), thus preparing samples (liquid compositions containing LNB) 1 to 16 having pH values at intervals of 0.5 across the entire pH range mentioned above.
A 5 mL sample of each of the prepared samples 1 to 16 was dispensed into a test tube and heated at 90° C. for 60 minutes.
Each of the heated samples was cooled to 15° C., and 1 μL was then spotted onto a silica gel thin layer chromatography (TLC) plate. The plate was developed using an 80% acetonitrile solvent, and was then immersed in a 5% sulfuric acid solution and colorized by heating in an oven. The existence or absence of decomposed or denatured products (N-acetylglucosamine dehydrate and galactose) and the amount of those decomposed or denatured products were evaluated visually to determine whether or not decomposition had occurred, and if so, the extent of that decomposition.

[2] = Test Example 2: effect of heating temperature and time on stability of LNB in neutral liquid composition (TLC); format: physicochemical; conditions: pH 7.0; 90° C. for 0-60 minutes or 65-88° C. for 60 minutes
Method: The LNB powder prepared in the above Production Example 1 was dissolved at a concentration of 2% in a 0.1 M phosphate buffer of pH 7.0 to prepare a sample (liquid composition containing LNB).
5 mL samples of the prepared sample were dispensed into test tubes, which were heated at 90° C. for 0, 10, 20, 30, 40, 50 or 60 minutes, or heated at 65, 67, 70, 75, 80, 85 or 88° C. for 60 minutes.
Each of the heated samples was cooled to 15° C., and the same method as that described for Test Example 1 was used to determine whether or not decomposition had occurred, and if so, the extent of that decomposition.

For `CC(=O)N[C@H]1C(O)O[C@H](CO)[C@@H](O)[C@@H]1O[C@@H]1O[C@H](CO)[C@H](O)[C@H](O)[C@H]1O` (stereo partly drawn) [LNB, Lacto-N-biose], the “stability of the LNB upon heating (decomposition by TLC)” value ([1]; pH 5.5 or less, particularly 5.0 or less) was “stable and underwent almost no decomposition”, the “stability of the LNB upon heating (decomposition by TLC)” value ([1]; pH 6.0 or higher, particularly 7.0 or higher) was “significant amounts of decomposed or denatured products were observed” and the “stability of LNB (decomposition by TLC)” value [2] was “decomposed or denatured products were detected under all of the different heat treatment conditions”.

— patent publication US9060529B2, “Method for treatment of lacto-N-biose-containing solution” (Morinaga Milk Industry Co., Ltd., priority 2010, dated 2015)
